Activity calls are given as the source filed them.
Columns and labels:
Assay type in all cases: functional, organism-based
Candida albicans = experiment: Antifungal activity against Candida albicans by agar diffusion method
Rhizomucor miehei = experiment: Antifungal activity against Mucor miehei by agar diffusion method
[1] = system: Streptomyces viridochromogenes; experiment: Antibacterial activity against Streptomyces viridochromogenes by agar diffusion method
Bacillus subtilis = experiment: Antibacterial activity against Bacillus subtilis by agar diffusion method
Staphylococcus aureus = experiment: Antibacterial activity against Staphylococcus aureus by agar diffusion method
Escherichia coli = experiment: Antibacterial activity against Escherichia coli by agar diffusion method

Measured: Activity

CC(=O)C(C)(c1c[nH]c2ccccc12)c1c[nH]c2ccccc12
inactive: all assays above

c1ccc2c(Cc3c[nH]c4ccccc34)c[nH]c2c1
inactive: all assays above

CC(CC(c1c[nH]c2ccccc12)c1c[nH]c2ccccc12)c1c[nH]c2ccccc12 (centres undefined)
inactive: all assays above

c1ccc2c(C(c3c[nH]c4ccccc34)c3c[nH]c4ccccc34)c[nH]c2c1
inactive: all assays above

Source: ChEMBL document CHEMBL1138433, “New indole alkaloids from the North Sea bacterium Vibrio parahaemolyticus Bio249” (J Nat Prod, 2003)
